Laboratory results as given in publication PMC3493696 (Life sciences, 2012).
Like-named read-outs stand apart in the source and are kept apart here.

Legend:
[1] = Plasma pharmacokinetics in mice after i.v. or p.o. AM-1241*HCl; assay type: in vivo, mouse
[2] = local (intraplantar) administration; ref Malan et al. 2001; cited from earlier work
[3] = ref Beltramo 2009, cited from earlier work
[4] = test system: CB2 vs. CB1; details: ref Beltramo 2009; Bingham et al. 2007; Mancini et al. 2009; Nackley et al. 2003; Quartilho et al. 2003; Yao et al. 2006; cited from earlier work
[5] = i.p., murine model; ref Storr et al. 2009; cited from earlier work
[6] = Solution stability in acetonitrile at 37°C; assay type: physicochemical; details: at least 24 hours, 20 µM
[7] = Microsomal metabolism and LC-MS/MS metabolite analysis, human liver microsomes; assay type: in vitro ADME; details: 100 µM, 30 minutes, 37°C, NADPH
[8] = test system: plasma proteins; assay: Plasma-protein binding in undiluted mouse plasma; assay type: in vitro ADME; details: up to 50 µM, 30 minute incubation at 37°C, triplicate
[9] = Stability in mouse plasma at 37°C; assay type: in vitro ADME; details: at least 6 hours, 20 µM
[10] = test system: mice; assay: Responses of mice to AM-1241 administration; assay type: in vivo, mouse
[11] = biological target: T1, CB2 (Homo sapiens, UniProt P34972); details: ref Beltramo 2009; Bingham et al. 2007; Mancini et al. 2009; Nackley et al. 2003; Quartilho et al. 2003; Yao et al. 2006; cited from earlier work
T1 sequence (P34972 whole entry, species assumed): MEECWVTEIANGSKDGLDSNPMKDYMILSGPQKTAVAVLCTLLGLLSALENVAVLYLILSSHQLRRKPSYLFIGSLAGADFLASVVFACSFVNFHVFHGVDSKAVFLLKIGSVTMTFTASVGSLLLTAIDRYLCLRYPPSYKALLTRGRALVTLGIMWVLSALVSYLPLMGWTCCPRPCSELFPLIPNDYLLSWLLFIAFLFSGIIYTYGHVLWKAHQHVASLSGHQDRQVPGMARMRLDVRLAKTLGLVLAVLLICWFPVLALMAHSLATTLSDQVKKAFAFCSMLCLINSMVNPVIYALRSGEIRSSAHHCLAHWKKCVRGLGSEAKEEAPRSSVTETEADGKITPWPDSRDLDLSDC

[12] = biological target: human serum albumin (Homo sapiens, UniProt P02768); assay: Binding to aqueous human serum albumin; assay type: in vitro ADME; details: 50 µM
Chain of human serum albumin (P02768 25-609): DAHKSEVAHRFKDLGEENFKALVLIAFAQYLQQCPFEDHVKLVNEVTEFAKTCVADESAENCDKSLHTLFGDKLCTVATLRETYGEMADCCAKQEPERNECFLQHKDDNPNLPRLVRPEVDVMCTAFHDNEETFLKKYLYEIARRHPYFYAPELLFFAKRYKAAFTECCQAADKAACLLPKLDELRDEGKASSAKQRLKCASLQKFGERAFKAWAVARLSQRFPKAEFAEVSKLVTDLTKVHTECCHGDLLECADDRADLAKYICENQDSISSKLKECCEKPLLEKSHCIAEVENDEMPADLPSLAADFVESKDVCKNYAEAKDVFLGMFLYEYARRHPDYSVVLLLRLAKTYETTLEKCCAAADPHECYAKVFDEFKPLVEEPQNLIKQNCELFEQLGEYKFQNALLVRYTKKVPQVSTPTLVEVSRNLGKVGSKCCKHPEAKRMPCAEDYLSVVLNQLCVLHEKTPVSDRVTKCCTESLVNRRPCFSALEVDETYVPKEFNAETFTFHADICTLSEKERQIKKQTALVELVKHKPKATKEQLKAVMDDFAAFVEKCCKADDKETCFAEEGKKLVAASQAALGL

[13] = Thermal stability of aqueous AM-1241*HCl solutions; assay type: physicochemical; details: 0.003, 0.03, 0.3 and 1 mg/mL, up to 14 days
[14] = Tissue distribution of AM-1241 in mice after i.v. or p.o. administration; assay type: in vivo, mouse; details: 25 mg/kg; for time by which concentration became undetectable: i.v.
[15] = Microsomal metabolism and LC-MS/MS metabolite analysis, rat liver microsomes; assay type: in vitro ADME; details: 100 µM, 30 minutes, 37°C, NADPH
[16] = 1.0 mg/kg i.v.; ref Dhawan et al. 2006; Petitet et al. 1999; cited from earlier work
[17] = rodents, doses of 0.1–100 mg/kg; ref Valenzano et al. 2005; cited from earlier work
[18] = ref Giblin et al. 2007; cited from earlier work
[19] = biological target: T1, CB2; assay: Preliminary experiments: CB2 agonist potency of metabolite; details: data not shown

CN1CCCCC1Cn1cc(C(=O)c2cc([N+](=O)[O-])ccc2I)c2ccccc21 (racemic) [AM-1241, (R,S)-(2-iodo-5-nitrophenyl)-[1-((1-methyl-piperidin-2-yl)methyl-1H-indol-3-yl]-methanone]
half-life after p.o. relative to i.v. administration ([1]; 25 mg/kg): over 2 fold | plasma half-life ([1]; 25 mg/kg i.v.): 0.617 h | half-life after p.o. administration ([1]; 25 mg/kg p.o.): 1.37 h | oral bioavailability ([1]; 25 mg/kg, plasma AUC ratio p.o./i.v.): ~ 21% | dose at which maximal analgesic efficacy was reached [2]: 3.3 mg/kg | doses reported efficacious in various preclinical pain models ([3]; i.v., Beltramo et al. 2006, Ohta et al. 2008): up to 6 mg/kg | selectivity for CB2 vs. CB1 [4]: up to 340 fold | daily dose required to reduce experimental colitis [5]: 20 to 40 mg/kg | recovery after incubation (stability) [6]: > 95% | metabolites formed compared with rat liver microsomes [7]: the same metabolites | bound to plasma protein [8]: 99% | recovery after incubation (stability) [9]: > 95% | toxicity ([10]; 25 mg/kg orally or i.v., necropsies unremarkable): not toxic | transient gaping response (animals affected) ([10]; 25 mg/kg p.o.): Two out of 29 mice | gross organ or tissue abnormalities at end-point necropsy ([10]; any AM-1241 treatment (25 mg/kg i.v. or p.o.)): No gross organ or tissue abnormalities | CB2 affinity [11]: low nanomolar | bound to albumin ([12]; 0.4% (w/v) aqueous human serum albumin): 56% | bound to albumin ([12]; 1.0% (w/v) aqueous human serum albumin): 85% | stability of aqueous samples ([13]; 4°C): stable | stability of aqueous samples ([13]; room temperature): stable | time by which concentration became undetectable ([14]; brain): ≤ 120 min | time by which concentration became undetectable ([14]; intestine): ≤ 240 min | time by which concentration became undetectable ([14]; kidney): ≤ 240 min | time by which concentration became undetectable ([14]; liver): ≤ 90 min | detection in brain or liver ([14]; p.o.): not in brain or liver | time by which concentration became undetectable ([14]; plasma): ≤ 240 min | time by which concentration became undetectable ([14]; spleen): ≤ 240 min | site of phase I microsomal metabolism (demethylation and hydroxylation products) [15]: primarily on the piperadine moiety

CN1CCCCC1Cn1cc(C(=O)c2cc([N+](=O)[O-])ccc2I)c2ccccc21.Cl (stereo not shown) [AM-1241*HCl]
behavior after administration ([10]; 25 mg/kg i.v.): initially somewhat hypoactive, but behaved normally by 90 minutes post-dose | behavior after administration ([10]; 25 mg/kg p.o.): remained alert and apparently unaffected | transient gaping response (animals affected) ([10]; 25 mg/kg p.o.): two of the twenty-nine animals

CN1CCCCC1Cn1cc(C(=O)c2ccccc2I)c2ccccc21 (stereo not shown) [AM-2233]
catalepsy [16]: profound catalepsy

COc1ccc2c(c1)c(CCN1CCOCC1)c(C)n2C(=O)c1cccc(Cl)c1Cl [GW405833, reference compound]
dose of maximal effective antihyperalgesic and analgesic activities ([3]; i.p.): 1 to 3 mg/kg | oral bioavailability [17]: 0%

O=C(NCC1CCOCC1)c1cnc(Nc2ccc(Cl)cc2Cl)nc1C(F)(F)F [GW842166X]
half-life after p.o. administration [18]: 3 to 5 h

Cc1c(C(=O)c2cccc3ccccc23)c2cccc3c2n1[C@H](CN1CCOCC1)CO3 [WIN 55,212-2]
catalepsy [16]: profound catalepsy

O=C(c1cc([N+](=O)[O-])ccc1I)c1cn(CC2CCCCN2)c2ccccc12 (stereo not shown) [demethylated metabolite of AM-1241]
CB2 agonist potency compared to the parent compound [19]: somewhat less potent
